In patent US20240261294A1, “METHOD FOR TREATING IDH INHIBITOR-RESISTANT SUBJECTS” (Eli Lilly and Company, priority 2021, published 2024) one finds IC50 data, which are given here for 1 molecule.

Where two headings read alike, the source gives them in different places.

The target of the assay is T1, IDH2 R140Q_P167R cis (Homo sapiens, UniProt P48735, P167R/R140Q).
T1 construct: expressed in transfected cells; host or cells: U-87 MG
T1 sequence (P48735 40-452 R140Q/P167R): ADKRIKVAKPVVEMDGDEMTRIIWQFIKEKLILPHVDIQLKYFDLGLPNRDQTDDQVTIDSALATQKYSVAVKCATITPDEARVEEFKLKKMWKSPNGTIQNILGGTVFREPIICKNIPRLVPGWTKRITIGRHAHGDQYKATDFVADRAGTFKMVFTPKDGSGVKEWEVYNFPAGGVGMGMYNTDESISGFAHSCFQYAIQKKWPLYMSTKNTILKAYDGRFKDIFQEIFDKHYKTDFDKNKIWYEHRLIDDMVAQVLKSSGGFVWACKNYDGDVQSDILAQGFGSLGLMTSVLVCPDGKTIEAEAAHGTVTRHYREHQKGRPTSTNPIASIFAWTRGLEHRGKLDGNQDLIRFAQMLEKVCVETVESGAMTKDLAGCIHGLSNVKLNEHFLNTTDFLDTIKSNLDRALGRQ
Kind of assay: Inhibition of 2-HG production in IDH2 mutant U-87 MG cells. The class given is cell-based. As to conditions: read-out: Relative IC50 (nM) Mean, inhibition of 2-HG production.

For `C=CC(=O)N1CCN([C@@H](CC2CC2)c2ccc([C@H](C)Nc3ncc4c(n3)N(CC)C(=O)OC4)cc2)CC1` [Compound A, 7-[[(1S)-1-[4-[(1S)-2-cyclopropyl-1-(4-prop-2-enoylpiperazin-1-yl)ethyl]phenyl]ethyl]amino]-1-ethyl-4H-pyrimido[4,5-d][1,3]oxazin-2-one], the IC50 is, setting by setting: (16 hours incubation, 50K cells/well, 100 μl media/well) 639 nM; (72 hours incubation, 12.5K cells/well) 104 nM.
